# Assay results from the supplement of paper PMC10307832.
# Key:
# Test in all cases: relative viability (nuclei count vs DMSO), 5 days (fraction); higher = more cells survive
# AZD5582 + Foretinib = compound: C[C@@H](C(=O)N[C@@H](C1CCCCC1)C(=O)N2CCC[C@H]2C(=O)N[C@@H]3[C@@H](CC4=CC=CC=C34)OCC#CC#CCO[C@@H]5CC6=CC=CC=C6[C@@H]5NC(=O)[C@@H]7CCCN7C(=O)[C@H](C8CCCCC8)NC(=O)[C@H](C)NC)NC [AZD5582] + COc1cc2c(Oc3ccc(NC(=O)C4(C(=O)Nc5ccc(F)cc5)CC4)cc3F)ccnc2cc1OCCCN1CCOCC1 [Foretinib] (partner 0.25 µM)
# Procedure, shortened: (§1)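 For relative viability, nuclei counts in treated wells were divided by those in vehicle wells. Lung cancer cell lines had been pin-tool dosed in 1536-well plates the day after seeding and cultured for 5 days, then fixed and stained in one step (final 0.05% Triton X-100, 1% formaldehyde, 1 ug/ml Hoechst) and imaged at 4×. Doses were one drug alone or a fixed anchor-drug dose plus five library-drug doses (not always all listed) in √10 steps, and values are duplicate-plate medians.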
# AZD5582 + Crizotinib = compound: C[C@@H](C(=O)N[C@@H](C1CCCCC1)C(=O)N2CCC[C@H]2C(=O)N[C@@H]3[C@@H](CC4=CC=CC=C34)OCC#CC#CCO[C@@H]5CC6=CC=CC=C6[C@@H]5NC(=O)[C@@H]7CCCN7C(=O)[C@H](C8CCCCC8)NC(=O)[C@H](C)NC)NC [AZD5582] + C[C@@H](Oc1cc(-c2cnn(C3CCNCC3)c2)cnc1N)c1c(Cl)ccc(F)c1Cl [Crizotinib] (partner 1 µM)
# Procedure, shortened: as §1
# [1] = compound: Cn1nnc2c(C(N)=O)ncn2c1=O [Temozolomide] + CC(=O)Nc1cccc(-n2c(=O)n(C3CC3)c(=O)c3c(Nc4ccc(I)cc4F)n(C)c(=O)c(C)c32)c1 [Trametinib] (partner 0.02 µM)
# Procedure, shortened: as §1
# [2] = compound: Cn1nnc2c(C(N)=O)ncn2c1=O [Temozolomide] + CS(=O)(=O)N1CCN(Cc2cc3nc(-c4cccc5[nH]ncc45)nc(N4CCOCC4)c3s2)CC1 [Pictilisib] (partner 1 µM)
# Procedure, shortened: as §1
Cell Line,relative viability (AZD5582 + Foretinib; first compound 0.001581 µM),relative viability (AZD5582 + Foretinib; first compound 0.005 µM),relative viability (AZD5582 + Foretinib; first compound 0.01581 µM),relative viability (AZD5582 + Foretinib; first compound 0.05 µM),relative viability (AZD5582 + Crizotinib; first compound 0.001581 µM),relative viability (AZD5582 + Crizotinib; first compound 0.005 µM),relative viability (AZD5582 + Crizotinib; first compound 0.01581 µM),relative viability (AZD5582 + Crizotinib; first compound 0.05 µM),relative viability ([1]; first compound 0.2 µM),relative viability ([1]; first compound 0.6325 µM),relative viability ([1]; first compound 2 µM),relative viability ([1]; first compound 6.325 µM),relative viability ([1]; first compound 20 µM),relative viability ([2]; first compound 0.2 µM),relative viability ([2]; first compound 0.6325 µM),relative viability ([2]; first compound 2 µM),relative viability ([2]; first compound 6.325 µM),relative viability ([2]; first compound 20 µM)
EMC-BAC-2,0.867,0.809,1.02,0.412,0.637,0.551,0.682,0.236,0.906,0.891,0.916,0.891,0.85,0.535,0.596,0.587,0.497,0.495
NCI-H1651,0.714,0.883,–,1.16,0.85,0.91,0.854,0.939,0.677,0.834,0.818,0.77,0.84,0.567,0.681,0.654,0.588,0.613
HCC-827,0.936,1.06,1.04,0.999,0.885,1.02,0.926,0.898,0.56,0.593,0.286,0.532,0.136,0.82,0.958,1.06,1.05,0.313
SW 1573,0.736,1,0.885,0.853,0.686,0.717,0.815,0.858,0.688,0.504,0.56,0.583,0.474,0.595,0.517,0.517,0.483,0.428
NCI-H460,0.916,1.03,0.952,0.97,0.801,0.998,0.704,0.94,0.136,0.236,0.158,0.0735,0.134,0.326,0.318,0.472,0.272,0.309
NCI-H1648,–,–,–,–,–,–,–,–,–,0.477,0.454,0.545,0.307,–,–,–,–,–
NCI-H647,1.08,1.16,1.1,1.21,0.809,0.732,1.02,0.327,0.528,0.537,0.56,0.353,0.227,0.419,0.444,0.406,0.272,0.216
NCI-H322M,1.07,1.06,–,1.29,0.852,0.944,0.636,1.31,0.446,0.526,0.569,0.532,0.451,–,0.555,0.545,0.483,0.363
NCI-H1666,0.786,1.02,0.953,0.907,0.662,0.817,1.01,0.808,0.828,0.871,0.739,0.809,0.732,0.433,0.404,0.394,0.345,0.298
NCI-H2342,1.04,1.11,1.07,1.27,–,–,–,–,0.638,0.848,0.757,0.799,0.818,–,–,–,–,–
